Experimental data: patent US20050032904A1, “Composition and use of allylamine derivatives” (priority 2003, published 2005)

Experiments:
Assay type in all cases: cell-based, human
HL 60 cells = experiment: Flow cytometry (FACS) cell cycle analysis; settings: TB 10-150 μM, 15 h
Hep 3B cells = experiment: Flow cytometry (FACS) cell cycle analysis; settings: TB 10-150 μM, 15 h
[1] = test system: cell cycle regulatory proteins in HT 29 cells; experiment: Western blot of cell cycle regulatory proteins; settings: TB 60-150 μM, 15 h; dose-dependent
Method: (§1) To further test this hypothesis, the dose effects of TB on the levels of cell cycle regulatory protein were conducted in four different human cancer cell lines, COLO 205 (p53 wild type), HT 29 (p53 […] mutant), Hep 3B (p53 partial deleted) and HL 60 (p53 null). […] The cells were rendered quiescent for 24 h, and then challenged with 10% FCS and treated with various concentrations of TB (60-150 μM) for additional 15 h. Protein extracts (100 μg/lane) were separated by SDS-PAGE, probed with specific antibodies, and detected using the NBT/BCIP system. Membranes were also probed with anti-GAPDH antibody to correct for differences in protein loading. As previously described (Chen R J, et. al., Toxicology & Applied Pharmacology 2000;169(2):132-41.), the frozen tumor was pulverized in liquid N2, and then mixed with lysis buffer (Tris-HCl 0.5 M, pH 6.8, SDS 0.4%). For cell cultures, the cells were seeded onto 150-mm dishes and grown in RPMI 1640 (for COLO 205, HT 29 and HL 60 cells) or MEM (for Hep 3B) supplemented with 10% FCS. After the cells had grown to subconfluence, they were rendered quiescent. The cells were released from quiescence with culture medium supplemented with 10% FCS. TB in 0.05% DMSO or 0.05% DMSO without TB was added to the cells at various concentrations and the mixture was allowed to incubate for 17 h. Western blot analysis was performed as previously described (Chen R J, et. al., Toxicology & Applied Pharmacology 2000;169(2):132-41; Lee W S, et. al., Circulation Research 1998;82(8):845-51.). Immunodetection was carried by probing with proper dilutions of specific antibodies at room temperature for 2 h. Anti-p21/Cip1, anti-p27/Kip1, anti-p53, anti-GAPDH monoclonal antibodies (Santa Cruz, Inc. CA); anti-cyclin B1, D1, and D3, anti-cdk2 and cdk4, and PCNA monclonal antibodies (Transduction Laboratories, Lexington, Ky.) were used at a concentration of 1:1,000 dilution. Anti-cyclin A and E polyclonal antibodies (Transduction, San Diego, Calif.) were used at a concentration of 1:250 dilution. […] Sigma Chemical Co., St. Louis, Mo.). In each experiment, membranes were also probed with anti-GAPDH antibody to correct for differences in protein loading.

[2] = test system: cell cycle regulatory proteins in HL 60 cells; experiment: Western blot of cell cycle regulatory proteins; settings: TB 60-150 μM, 15 h
Method: as §1

[3] = test system: cell cycle regulatory proteins in Hep 3B cells; experiment: Western blot of cell cycle regulatory proteins; settings: TB 60-150 μM, 15 h
Method: as §1

CN(C/C=C/C#CC(C)(C)C)Cc1cccc2ccccc12 [TB, 1-Naphthalenemethanamine, N-(6,6-dimethyl-2-hepten-4-ynyl)-N-methyl-, (E)-]
apoptosis (presence of sub G1) (HL 60 cells): dose-dependently caused the occurrence of apoptosis
G0/G1 arrest (HL 60 cells; p53 null cells): did not induce G0/G1 arrest
apoptosis (presence of sub G1) (Hep 3B cells): dose-dependently caused the occurrence of apoptosis
G0/G1 arrest (Hep 3B cells; p53 partial deleted cells): did not induce G0/G1 arrest
levels of cyclin D3 and cdk4, dose effect [1]: decreased
levels of p53, p21/Cip1 and p27/Kip1 protein, dose effect [1]: increased
levels of p53 and p21/Cip1 protein, dose effect [2]: did not change
levels of p27/Kip1 protein, dose effect ([2]; dose-dependent): significantly increased
levels of p53 and p21/Cip1 protein, dose effect [3]: did not change
levels of p27/Kip1 protein, dose effect ([3]; dose-dependent): significantly increased
